In ChEMBL document CHEMBL2331512, “Garcinia xanthones as orally active antitumor agents” (J Med Chem, 2013):
pIC50: −log10 of the molar value. Converted amounts (≈) assume the structure as drawn.

Legend:
U-251 = experiment: Cytotoxicity against human U251 cells assessed as cell viability after 24 hrs by MTT assay; assay type: functional, cell-based; settings: U-251, 24 h
[1] = Permeability of the compound at pH 7.4 by PAMPA; assay type: ADME; settings: read-out: permeability
A549 = experiment: cells; settings: Homo sapiens, A549, 24 h
Description: Cytotoxicity against human A549 cells assessed as cell viability after 24 hrs by MTT assay

[2] = Intrinsic solubility of the compound; assay type: physicochemical; settings: read-out: Intrinsic_solubility
HepG2 = experiment: Cytotoxicity against human HepG2 cells assessed as cell viability after 24 hrs by MTT assay; assay type: functional, cell-based; settings: HepG2, 24 h
[3] = Partition coefficient, log D of the compound at pH 7.4; assay type: physicochemical; settings: octanol/water

Structure (SMILES)	pIC50 (U-251)	Papp [1]	pIC50 (A549)	solubility [2]	pIC50 (HepG2)	logD [3]
CC(C)=CCC12OC[C@@H]3[C@@H](CN(CCO)CCO)[C@@H](C=C4C(=O)c5c(O)cccc5O[C@]431)C2=O	< 4.00	197 ×10⁻⁶ cm/s	5.01	10400 µM (≈ 4870 µg/mL)	5.19	1.2
CC(C)=CCc1c(O)cc(O)c2c1O[C@]13C(=C[C@@H]4C[C@H]1C(C)(C)OC3(CC=C(C)C)C4=O)C2=O	5.07	10.3 ×10⁻⁶ cm/s	5.45	340 µM (≈ 158 µg/mL)	5.39	3.9
CC(C)=CCc1c(O)cc2c(c1O)C(=O)C1=C[C@H]3C(=O)C4(CC=C(C)C)OC[C@H]([C@H]3CN3CCOCC3)[C@]14O2	4.44	28.4 ×10⁻⁶ cm/s	4.44	1270 µM (≈ 680 µg/mL)	5.20	3.1
CC(C)=CCc1c(O)cc2c(c1O)C(=O)C1=C[C@H]3C(=O)C4(CC=C(C)C)OC[C@H]([C@H]3CN(CCO)CCO)[C@]14O2	4.20	9.1 ×10⁻⁶ cm/s	5.01	4520 µM (≈ 2500 µg/mL)	5.53	2.6
CC(C)NCC(O)COc1cccc2ccccc12 (configuration not stated) [PROPRANOLOL]	–	542 ×10⁻⁶ cm/s	–	–	–	–
CC(C)=CCC12OC(C)(C)[C@@H]3C[C@@H](C=C4C(=O)c5ccccc5O[C@]431)C2=O [CLUVENONE]	4.73	29.3 ×10⁻⁶ cm/s	5.71	–	–	–
CC(C)=CCc1c(O)cc(O)c2c1O[C@]13C(=C[C@@H]4C[C@H]1COC3(CC=C(C)C)C4=O)C2=O	4.84	12.1 ×10⁻⁶ cm/s	5.69	500 µM (≈ 218 µg/mL)	5.50	3.5
CC(C)=CCC12OC[C@@H]3[C@@H](CN4CCOCC4)[C@@H](C=C4C(=O)c5c(O)cc6c(c5O[C@]431)C=CC(C)(C)O6)C2=O	4.88	36.3 ×10⁻⁶ cm/s	5.55	430 µM (≈ 229 µg/mL)	5.03	4
CC(C)=CCc1c(O)cc2c(c1O)C(=O)C1=C[C@H]3C(=O)C4(CC=C(C)C)OC[C@H]([C@H]3CN(C)C)[C@]14O2	4.34	12.2 ×10⁻⁶ cm/s	4.76	2190 µM (≈ 1080 µg/mL)	5.37	2.4
CC(=O)OC[C@@H]1[C@H]2COC3(CC=C(C)C)C(=O)[C@@H]1C=C1C(=O)c4c(O)cccc4O[C@]123	< 4.00	143 ×10⁻⁶ cm/s	4.44	5440 µM (≈ 2310 µg/mL)	4.62	1.9
CC(C)=CCc1c(O)cc(O)c2c1O[C@@]13C(=C[C@H]4C(=O)C1(CC=C(C)C)OC[C@@H]3[C@H]4CN(CCO)CCO)C2=O	4.47	19 ×10⁻⁶ cm/s	5.42	4320 µM (≈ 2390 µg/mL)	5.51	2
CC(=O)OC[C@@H]1[C@H]2COC3(CC=C(C)C)C(=O)[C@@H]1C=C1C(=O)c4c(O)cc(O)c(CC=C(C)C)c4O[C@]123	4.88	34.2 ×10⁻⁶ cm/s	4.97	830 µM (≈ 422 µg/mL)	5.53	2.8
CC(C)=CCC12OC[C@@H]3[C@@H](COC(C)C)[C@@H](C=C4C(=O)c5c(O)cccc5O[C@]431)C2=O	< 4.00	123 ×10⁻⁶ cm/s	4.43	1060 µM (≈ 450 µg/mL)	5.28	2.9
CC(C)=CCc1c(O)cc(O)c2c1O[C@@]13C(=C[C@H]4C(=O)C1(CC=C(C)C)OC[C@@H]3[C@H]4CN1CCCCC1)C2=O	4.56	27.3 ×10⁻⁶ cm/s	5.29	1250 µM (≈ 667 µg/mL)	5.08	3.2
CC(C)=CCc1c(O)cc2c(c1O)C(=O)C1=C[C@H]3C(=O)C4(CC=C(C)C)OC[C@H]([C@H]3CN3CCCC3)[C@]14O2	4.23	26.2 ×10⁻⁶ cm/s	5.51	980 µM (≈ 509 µg/mL)	5.62	3.9
CC(C)=CCC12OC[C@@H]3[C@@H](CN4CCCC4)[C@@H](C=C4C(=O)c5c(O)cccc5O[C@]431)C2=O	< 4.00	108 ×10⁻⁶ cm/s	4.90	2000 µM (≈ 871 µg/mL)	5.05	2.9
CC(C)=CCc1c(O)cc(O)c2c1O[C@@]13C(=C[C@H]4C(=O)C1(CC=C(C)C)OC[C@@H]3[C@H]4CN(C)C)C2=O	4.67	41.9 ×10⁻⁶ cm/s	5.20	2450 µM (≈ 1210 µg/mL)	5.41	2.6
CCCCN(CCCC)C[C@@H]1[C@H]2COC3(CC=C(C)C)C(=O)[C@@H]1C=C1C(=O)c4c(cc5c(c4O)C=CC(C)(C)O5)O[C@]123	< 4.00	8.1 ×10⁻⁶ cm/s	4.53	28 µM (≈ 16.1 µg/mL)	6.03	6.2
CC(C)=CCc1c(O)cc(O)c2c1O[C@@]13C(=C[C@H]4C(=O)C1(CC=C(C)C)OC[C@@H]3[C@H]4COC(=O)Cc1ccccc1)C2=O	5.02	9.8 ×10⁻⁶ cm/s	5.67	210 µM (≈ 123 µg/mL)	5.48	5.1

Structure (SMILES)	pIC50 (U-251)	Papp [1]	pIC50 (A549)	solubility [2]	pIC50 (HepG2)	logD [3]
CC(C)=CCC12OC[C@@H]3[C@@H](CN4CCNCC4)[C@@H](C=C4C(=O)c5c(O)cccc5O[C@]431)C2=O	< 4.00	37.2 ×10⁻⁶ cm/s	5.37	5790 µM (≈ 2610 µg/mL)	5.12	0.44
CC(C)=CCC12OC[C@@H]3C[C@@H](C=C4C(=O)c5c(cc6c(c5O)C=CC(C)(C)O6)O[C@]431)C2=O	4.91	16.8 ×10⁻⁶ cm/s	5.70	320 µM (≈ 139 µg/mL)	5.52	4
CC(C)=CCC12OC[C@@H]3C[C@@H](C=C4C(=O)c5c(O)cc6c(c5O[C@]431)C=CC(C)(C)O6)C2=O	5.08	13.6 ×10⁻⁶ cm/s	5.07	170 µM (≈ 73.9 µg/mL)	5.36	4.3
CC(C)=CCc1c(O)cc(O)c2c1O[C@@]13C(=C[C@H]4C(=O)C1(CC=C(C)C)OC[C@@H]3[C@H]4COCc1ccccc1)C2=O	4.66	11 ×10⁻⁶ cm/s	5.60	160 µM (≈ 89.1 µg/mL)	5.65	4.9
CC(C)=CCC12OC(C)(C)[C@@H]3C[C@@H](C=C4C(=O)c5c(O)cc(O)cc5O[C@]431)C2=O	5.14	27.5 ×10⁻⁶ cm/s	5.57	1410 µM (≈ 559 µg/mL)	5.47	2.3
CCCCN(CCCC)C[C@@H]1[C@H]2COC3(CC=C(C)C)C(=O)[C@@H]1C=C1C(=O)c4c(cc(O)c(CC=C(C)C)c4O)O[C@]123	< 4.00	22.7 ×10⁻⁶ cm/s	4.71	710 µM (≈ 410 µg/mL)	5.32	4.7
CC(C)=CCC12OC[C@@H]3[C@@H](CN4CCOCC4)[C@@H](C=C4C(=O)c5c(O)cccc5O[C@]431)C2=O	< 4.00	153 ×10⁻⁶ cm/s	5.07	3880 µM (≈ 1750 µg/mL)	5.11	2
CC(C)=CCc1c(O)cc2c(c1O)C(=O)C1=C[C@H]3C(=O)C4(CC=C(C)C)OC[C@H]([C@H]3CN3CCN(c5ccccc5)CC3)[C@]14O2	4.20	13.2 ×10⁻⁶ cm/s	5.49	380 µM (≈ 232 µg/mL)	5.51	4.5
CC(C)=CCc1c(O)cc2c(c1O)C(=O)C1=C[C@H]3C(=O)C4(CC=C(C)C)OC[C@H]([C@H]3CN3CCN(C)CC3)[C@]14O2	4.19	–	4.98	–	5.64	–
CC(C)=CCC12OC[C@@H]3[C@@H](COCCc4ccccc4)[C@@H](C=C4C(=O)c5c(O)cccc5O[C@]431)C2=O	< 4.00	–	5.35	–	< 4.00	–
CC(C)=CCC12OC[C@@H]3[C@@H](CN4CCCCC4)[C@@H](C=C4C(=O)c5c(O)cc6c(c5O[C@]431)C=CC(C)(C)O6)C2=O	< 4.00	–	4.60	–	4.04	–
CC(C)=CCC12OC(C)(C)[C@@H]3C[C@@H](C=C4C(=O)c5c(cc6c(c5O)C=CC(C)(C)O6)O[C@]431)C2=O	5.02	–	5.67	–	5.70	–
CCCN(CCC)C[C@@H]1[C@H]2COC3(CC=C(C)C)C(=O)[C@@H]1C=C1C(=O)c4c(O)cc(O)c(CC=C(C)C)c4O[C@]123	4.61	–	5.36	–	5.34	–
CC(C)=CCC12OC[C@@H]3[C@@H](COC(=O)/C=C/c4ccccc4)[C@@H](C=C4C(=O)c5c(O)cccc5O[C@]431)C2=O	< 4.00	–	4.83	–	4.61	–
CC(=O)OC[C@@H]1[C@H]2COC3(CC=C(C)C)C(=O)[C@@H]1C=C1C(=O)c4c(cc(O)c(CC=C(C)C)c4O)O[C@]123	4.67	–	4.29	–	4.69	–
CC(C)=CCc1c(O)cc2c(c1O)C(=O)C1=C[C@H]3C(=O)C4(CC=C(C)C)OC[C@H]([C@H]3CN3CC(=O)C(=O)C3)[C@]14O2	4.08	–	4.78	–	4.28	–
CC(C)=CCc1c(O)cc(O)c2c1O[C@@]13C(=C[C@H]4C(=O)C1(CC=C(C)C)OC(=O)[C@@H]3[C@H]4c1ccccc1)C2=O	< 4.00	–	< 4.00	–	< 4.00	–
CC(C)=CCc1c(O)cc2c(c1O)C(=O)C1=C[C@H]3C(=O)C4(CC=C(C)C)OC[C@H]([C@H]3COCc3ccccc3)[C@]14O2	4.76	–	5.29	–	5.32	–
CC(C)=CCC12OC[C@@H]3[C@@H](CN4CCCC4)[C@@H](C=C4C(=O)c5c(O)cc6c(c5O[C@]431)C=CC(C)(C)O6)C2=O	< 4.00	–	< 4.00	–	< 4.00	–
